Assay results taken from patent US7863279B2, “Triazolopyridine carboxamide derivatives and triazolopyrimidine carboxamide derivatives, preparation thereof and therapeutic use thereof” (sanofi-aventis, priority 2007, dated 2011).

Tests used:
[1] = target: T1, MGL (monoacyl glycerol lipase) enzyme (Mus musculus, UniProt O35678); assay: Radioenzymatic assay of [3H] 2-oleoyl glycerol hydrolysis by MGL; assay type: biochemical; conditions: mouse brain homogenate; 20 min preincubation; 50 μM 2-OG, 20 min at ambient temperature; read-out: IC50 (concentration inhibiting 50% of the control enzyme activity of MGL)
T1 construct: the source of MGL enzyme is a homogenate of mouse brain from which the cerebellum and the medulla oblongata have been removed; from tissue; host or cells: mouse brain homogenate (cerebellum and medulla oblongata removed)
T1 sequence (O35678 1-303): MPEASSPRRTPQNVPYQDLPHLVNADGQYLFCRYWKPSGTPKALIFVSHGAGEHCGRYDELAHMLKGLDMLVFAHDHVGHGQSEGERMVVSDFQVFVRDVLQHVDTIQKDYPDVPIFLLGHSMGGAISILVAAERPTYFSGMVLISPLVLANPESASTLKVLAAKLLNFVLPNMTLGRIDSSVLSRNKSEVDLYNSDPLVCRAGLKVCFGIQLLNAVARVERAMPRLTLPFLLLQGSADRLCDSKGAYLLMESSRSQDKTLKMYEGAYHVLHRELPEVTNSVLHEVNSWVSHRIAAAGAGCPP
Method: Tests comprised measuring the activity, in vitro, of the compounds of the invention on the MGL enzyme.
The inhibitory activity was measured in a radioenzymatic assay based on measuring the product of hydrolysis of 2-oleoyl glycerol ([^3H] 2-OG) by MGL. The products of hydrolysis of [^3H] 2-OG, labeled on the glycerol, are oleic acid and [^3H] glycerol, and the source of MGL enzyme is a homogenate of mouse brain from which the cerebellum and the medulla oblongata have been removed. The mouse brains are removed, and stored at −80° C. until they are used, or homogenized immediately for twice 5 seconds using a Precellys apparatus at 5000 rpm (Bertin) in a 10 mM Tris-HCl, 150 mM NaCl, 1 mM EDTA buffer (pH 8) at 4° C. The concentration of the homogenates is then adjusted to 7.5 μg/μl.
(§1) The dilution series of the compounds is prepared from stock solutions at 20 mM in 100% DMSO. […]
Assaying of the MGL activity is carried out in a 96-well microplate in a final reaction volume of 100 μl. […] After stirring for 10 minutes, the microplate is centrifuged for 15 minutes at 4000 g and a 30 μl aliquot of the aqueous phase containing the [^3H] glycerol produced is removed and then counted for 5 minutes by liquid scintillation (Wallac 1450 Microbeta). […]

[2] = target: T2, FAAH (Fatty Acid Amide Hydrolase) enzyme (Mus musculus, UniProt O08914); assay: Radioenzymatic assay of [3H] anandamide hydrolysis by FAAH; assay type: biochemical; conditions: mouse brain homogenate; 20 min preincubation; 10 μM anandamide, 20 min at ambient temperature; read-out: IC50 (concentration inhibiting 50% of the control enzyme activity of FAAH)
T2 construct: the source of FAAH enzyme is a homogenate of mouse brain from which the cerebellum and the medulla oblongata have been removed; from tissue; host or cells: mouse brain homogenate (cerebellum and medulla oblongata removed)
T2 sequence (O08914 1-579): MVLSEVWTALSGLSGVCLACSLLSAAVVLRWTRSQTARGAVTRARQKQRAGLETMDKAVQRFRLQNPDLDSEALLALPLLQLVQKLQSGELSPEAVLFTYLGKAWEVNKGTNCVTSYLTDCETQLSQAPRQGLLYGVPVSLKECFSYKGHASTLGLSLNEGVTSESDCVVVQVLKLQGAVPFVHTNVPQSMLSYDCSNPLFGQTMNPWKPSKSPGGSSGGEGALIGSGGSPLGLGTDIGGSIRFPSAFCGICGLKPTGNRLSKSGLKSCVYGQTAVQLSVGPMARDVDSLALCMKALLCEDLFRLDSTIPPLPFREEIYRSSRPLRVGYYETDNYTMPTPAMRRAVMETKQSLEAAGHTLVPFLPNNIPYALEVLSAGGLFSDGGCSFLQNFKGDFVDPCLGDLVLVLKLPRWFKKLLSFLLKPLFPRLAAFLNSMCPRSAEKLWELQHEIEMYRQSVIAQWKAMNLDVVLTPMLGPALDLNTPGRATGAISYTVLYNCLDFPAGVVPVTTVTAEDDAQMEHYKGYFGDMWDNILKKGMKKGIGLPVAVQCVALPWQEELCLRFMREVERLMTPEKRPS
Method: Tests comprised measuring the activity, in vitro, of the compounds of the invention on the FAAH enzyme.
The inhibitory activity was measured in a radioenzymatic assay based on measuring the product of hydrolysis (ethanolamine [1-3H]) of anandamide by FAAH (Life Science (1995), 56, 1999-2005 and Journal of Pharmacology and Experimented Therapeutics (1997), 283, 729-734). The products of hydrolysis of [^3H] anandamide, labeled on ethanolamine, are arachidonic acid and [^3H]ethanolamine, and the source of FAAH enzyme is a homogenate of mouse brain from which the cerebellum and the medulla oblongata have been removed. The mouse brains are removed, and stored at −80° C. until they are used, or homogenized immediately for twice 5 seconds using a Precellys apparatus at 5000 rpm (Bertin) in a 10 mM Tris-HCl, 150 mM NaCl, 1 mM EDTA buffer (pH 8) at 4° C. The concentration of the homogenates is then adjusted to 20 μg/μl.
as §1
Assaying of the FAAH activity is carried out in a 96-well microplate in a final reaction volume of 70 μl. […] After stirring for 10 minutes, the microplate is centrifuged for 15 minutes at 4000 g and a 30 μl aliquot of the aqueous phase containing the [^3H]ethanolamine produced is removed and then counted for 5 minutes by liquid scintillation (Wallac 1450 Microbeta).

Structure (SMILES) | melting point | IC50 [1] | IC50 [2]
O=C(N1CCN(c2cccc(C(F)(F)F)c2)CC1)n1nnc2ccc(-c3ccsc3)nc21 [compound 5, (5-thiophen-3-yl[1,2,3]triazolo[4,5-b]pyridin-3-yl)[4-(3-trifluoromethylphenyl)piperazin-1-yl]methanone] | 93 to 95 °C |  | 
O=C(N1CCN(c2cccc(C(F)(F)F)c2)CC1)n1nnc2ccc(-c3ccccc3Cl)nc21 [compound 1, [5-(2-chlorophenyl)[1,2,3]triazolo[4,5-b]pyridin-3-yl][4-(3-trifluoromethylphenyl)piperazin-1-yl]methanone] | 69 to 71 °C |  | 
O=C(N1CCN(c2cccc(C(F)(F)F)c2)CC1)n1nnc2ccc(-c3ccoc3)nc21 [compound 4, (5-furan-3-yl[1,2,3]triazolo[4,5-b]pyridin-3-yl)[4-(3-trifluoromethylphenyl)piperazin-1-yl]methanone] | 68 to 70 °C |  | 

The next lines start with the values.

melting point | IC50 [1] | IC50 [2] | Structure (SMILES)
139 to 141 °C | 2 nM | 2 nM | O=C(N1CCN(c2cccc(C(F)(F)F)c2)CC1)n1nnc2ccc(-c3ccc(Cl)cc3)nc21 [Compound No. 3, [5-(4-chlorophenyl)[1,2,3]triazolo[4,5-b]pyridin-3-yl][4-(3-trifluoromethylphenyl)piperazin-1-yl]methanone]
102 to 104 °C |  |  | O=C(N1CCN(c2cccc(C(F)(F)F)c2)CC1)n1nnc2ccc(-c3cccc(Cl)c3)nc21 [compound 2, [5-(3-chlorophenyl)[1,2,3]triazolo[4,5-b]pyridin-3-yl][4-(3-trifluoromethylphenyl)piperazin-1-yl]methanone]
90 to 92 °C |  |  | O=C(N1CCN(c2cccc(C(F)(F)F)c2)CC1)n1nnc2ccc(-c3ccc4ccccc4c3)nc21 [compound 6, (5-naphthalen-2-yl[1,2,3]triazolo[4,5-b]pyridin-3-yl)[4-(3-trifluoromethylphenyl)piperazin-1-yl]methanone]
